Source: article PMC7411887, “New Paracyclophanylthiazoles with Anti-Leukemia Activity: Design, Synthesis, Molecular Docking, and Mechanistic Studies” (Molecules, 2020)

Columns and labels:
[1] = system: ROS in SR cells; experiment: Mitochondrial production of ROS; type: cell-based, human; conditions: 30 min at 37 °C
Procedure: Mitochondria play an essential role in the propagation of apoptosis. It is reported that, at an early stage, apoptotic stimuli are capable of modifying the mitochondrial transmembrane potential (Δψmt). Δψmt was recorded by the fluorescence of the dye JC-1.20. […] . The disruption of Δψmt is associated with the appearance of annexin V positivity in the treated cells when they are in an early apoptotic stage. It is documented that the dissipation of Δψmt is characteristic of apoptosis, and this was indicated with both microtubule-stabilizing and -destabilizing agents in different cell types. […] Mitochondrial membrane depolarization is associated with mitochondrial production of ROS [35]. Therefore, we investigated whether ROS production increased after treatment with the test compounds.
Figure 13 Mitochondrial production of ROS in SR cells with 3a and colchicine reference compared to control. […]
5. Adjust the cell concentration so at least 1 x10^4 cells should be analyzed per experimental condition. […] Mean fluorescence intensity in Ex/Em = 495/529 nm can be quantified and compared between untreated cells and cells treated with test compounds, or between different cell types. […]
4. For adherent cells: remove the ROS Label, add 100 μl of ROS Assay Buffer or PBS and measure fluorescence immediately, or treat the cells with 100 μL of diluted test compound(s) for desired period of time. […]

[2] = system: caspase-3; experiment: Caspase-3 ELISA on leukemia SR cell line; type: cell-based, human; conditions: for Caspase 3 Conc: ± SD
Procedure: Since caspase-3 is important for spreading the apoptotic signal after exposure to antimitotic compounds [38], the effect of compound 3a on the caspase-3 activated enzyme was evaluated using ELISA and replicated three times. The reference compound and 3a were incubated for 30 min at room temperature in the dark on the leukemia SR cell line. […]
color. Add 50 μL of Stop solution into each well and mix thoroughly. The color changes […]
9. Read the O.D. absorbance at 450 nm in a micro-plate reader immediately after adding the
Caspase assay is performed according to the following procedures:
1. Allowing all reagents to reach room temperature before use. Gently mix all liquid reagents prior to use (Note: A standard curve must be run with each assay).
2. Determine the number of 8-well strips needed for the assay. Insert these in the frame(s) for current use. (Re-bag extra strips and frame. Store these in the refrigerator for future […]
3. Add 100 μL of the Standard Diluent Buffer to the zero standard wells. Well(s) reserved for chromogen blank should be left empty.
4. Add 100 μL of standards and controls or diluted samples to the appropriate microtiter wells. The sample dilution chosen should be optimized for each experimental system.
Tap gently on side of plate to mix.
5. Cover wells with plate cover and incubate for 2 hours at room temperature.
6. Thoroughly aspirate or decant solution from wells and discard the liquid. Wash wells 4 times. See Directions for Washing.
7. Pipette 100 μL of Caspase-3 (Active) Detection Antibody solution into each well except the chromogen blank(s). Tap gently on the side of the plate to mix.
8. Cover plate with plate cover and incubate for 1 h at room temperature.
9. Thoroughly aspirate or decant solution from wells and discard the liquid.
10. Wash wells 4 times. See Directions for Washing.
11. Add 100 μL Anti-Rabbit IgG HRP Working Solution to each well except the chromogen blank(s). Prepare the working dilution as described in Preparing IgG HRP.
12. Cover wells with the plate cover and incubate for 30 minutes at room temperature.
13. Thoroughly aspirate or decant solution from wells and discard the liquid. Wash wells 4
14. Add 100 μL of Stabilized Chromogen to each well. The liquid in the wells will begin to
15. Incubate for 30 min at room temperature and in the dark. […]
with aluminum foil or metalized mylar. The incubation time for chromogen substrate is often determined by the microtiter plate reader used. Many plate readers have the capacity to record a maximum optical density (O.D.) of 2.0. The O.D. values should be monitored and the substrate reaction stopped before the O.D. of the positive wells exceeds the limits of the instrument. The O.D. values at 450 nm can only be read after the Stop Solution has been added to each well. If using a reader that records only to 2.0 O.D., […]
16. Add 100 μL of Stop Solution to each well. Tap side of plate gently to mix. The solution in the wells should change from blue to yellow.
17. Read the absorbance of each well at 450 nm having blanked the plate reader against a chromogen blank composed of 100 μL each of Stabilized Chromogen and Stop Solution.
Read the plate within 2 hours after adding the Stop Solution.
18. Use a curve fitting software to generate the standard curve. A four-parameter algorithm provides the best standard curve fit.
19. Read the concentrations for unknown samples and controls from the standard curve.
Multiply value(s) obtained for sample(s) by the appropriate dilution factor to correct for the dilution in step 3. […]

COc1cc2c(c(OC)c1OC)-c1ccc(OC)c(=O)cc1[C@@H](NC(C)=O)CC2 [Colchicine, colchicine, reference compound]
ROS % of control [1]: 96.18% | level of active caspase-3 [2]: 428.9 ng/mL | Caspase 3 Conc [2]: 428.9 ± 5.47 pg/mL

COC(=O)C=C1SC(=NNC(=O)c2cc3ccc2CCc2ccc(cc2)CC3)N(c2ccccc2)C1=O [Compound 3a]
ROS % of control [1]: 112.10% | level of active caspase-3 [2]: 471.2 ng/mL | Caspase 3 Fold Change ([2]; relative to control): 8.84 fold | Caspase 3 Conc [2]: 471.2 ± 6.11 pg/mL
